Publication PMC6655611, “The effect of amantadine on an ion channel protein from Chikungunya virus” (PLoS Neglected Tropical Diseases, 2019)

B1: GST-6K (fusion of Chikungunya virus 6K with Glutathione S Transferase) (natural protein)
chain: ATYYEAAAYLWNEQQPLFWLQALIPLAALIVLCNCLKLLPCCCKTLAFLAVMSIGAHTVSA
notes: Monomer MW printed as 33.5 kDa; The GST tag was not removed; also called CHIKV 6K; recombinant GST-6K; not shown: GST, N-terminal, kept

Assays:
[1] = molecular target: T1, CHIKV 6K (GST-6K) (Chikungunya virus strain Senegal 37997, UniProt Q5XXP3); experiment: planar lipid bilayer electrophysiology; also liposome dye release and DLS fusion assay; type: biochemical; settings: 1 uM amantadine; 2.6 ng/ul GST-6K in DPhPC/cholesterol bilayer, 500 mM KCl, 5 mM MgCl2, 10 mM HEPES pH 7.4, 24-25 C, -70 and +70 mV; direct binding not measured
T1 construct: mature 6K cut from structural polyprotein C-E3-E2-6K-E1; N-terminal GST tag kept (pGEX-6P2), E. coli Rosetta pLysS

[2] = molecular target: the molecule itself; experiment: SEC

Molecule	planar lipid bilayer electrophysiology; also liposome dye release and DLS fusion [1]	stoichiometry N [2]
NC12CC3CC(CC(C3)C1)C2 [amantadine]	This clearly indicates that amantadine abolishes the ion channel activity of CHIKV 6K	
B1		6
